Laboratory results taken from patent US12714691B2, “Method of treating triple-negative breast cancer” (THE UNITED STATES OF AMERICA, AS REPRESENTED BY THE …, priority 2018, dated 2026).

How the values were obtained:
GDSC cell line panel = GDSC cell line panel drug activity (IC50, Cell Titer Glo measurement of ATP); type: cell-based; settings: GDSC triple negative breast cancer lines (21); p<7E-10
Method: (§1) To determine reproducibility across institutes and assay types, we tested a selected set of NCI-60-screened compounds for activity in the GDSC cell line panel (Table 1). Drug data reproducibility may be affected by potential sources of data divergence such as assay type and duration for drug treatment. Noting that the GDSC and the NCI/DTP used different assays to determine their IC50 values (Cell Titer Glo measurements of ATP at 72 hours post-treatment versus sulforhodamine B measurement of total protein at 48 hours post-treatment), we compared 19 drugs referenced by their NSCs (National Service Center identifiers) and associated with a range of mechanisms of action types. The drugs with the strongest correlations were oxyphenisatin acetate (Acetalax) (FIG. 5a, R=0.80, p=1.1×10^−10, N=43) and bisacodyl (FIG. 5b, R=0.84, p=9.0×10^−13, N=44). These FDA-approved laxatives lacked pre-existing data in the CTRP, CCLE and GDSC.
In this work, the drugs were assessed in a different institution using a different assay using 1,080 cell lines, including 21 triple negative breast cancers (FIG. 8A, B). […]
DETERMINATION OF PROSPECTIVE TRIPLE NEGATIVE BREAST CANCERS. Transcript expression levels of ERBB2, ESR1, ESR2 and PGR (HER2, estrogen receptor and progesterone receptor) were assessed by GDSC using the Affymetrix Human Genome U219 Array and accessed in CellMinerCDB. […]

NCI-60 cell lines = test: NCI-60 compound activity (z score of GI50, sulforhodamine B total protein assay, DTP); type: cell-based; settings: for Activity (Z score) against breast cancer cell lines: 4 of 5 tested breast cancer cell lines (MCF7, HS578T, BT549, T47D); for Anticancer activity compared with all available (~178) FDA-approved drugs: HS 578T and BT-549 cell lines, FIG. 7B; for Activity (Z score) pattern against NCI-60 cell lines: certain breast cancer, colorectal cancer and ovarian cancer cell lines, FIG. 6; for Activity (Z score) against ovarian cancer cell lines: four of seven ovarian cancer cell lines (OVCAR-3, OVCAR-4, OVCAR-8, NCI-ADR-RES); for Effectiveness compared with 13 approved breast cancer drugs: triple negative breast cancer cell lines HS 578T and BT-549 (two of three NCI-60 TNBC lines), FIG. 7A; for Activity (Z score) against colorectal cell lines: two of seven colorectal cell lines (COLO205 and HCC2998)
Method: as §1
Acetalax and bisacodyl activities against a number of NCI-60 cell lines were obtained.
NCI-60 drug activity, molecular profiling, and annotation data was obtained from CellMiner (Database Version 2.1). […] Detailed information about CellMiner data preparation is publically available for example, in Reinhold, W. C. et al., Cancer Res. 72:3499-3511 (2012), Reinhold, W. C. et al., Cancer Res. 77:601-612 (2017), Abaan, O. D. et al., Cancer Res. 73:4372-4382 (2013), and Varma, S. et al., PloS One 9: e92047 (2014), as well as being documented within CellMiner.
COMPOUND ACTIVITY. Compound activity is indicated as a standardized, ‘z-score’ value derived from measurement of the cell line-specific 50% growth-inhibitory (GIS0) concentration using the sulforhodamine B total protein cytotoxicity assay generated by the Developmental Therapeutics Program (dtp.cancer.gov). In particular, for each compound, the mean and standard deviation of −log 10 [molar GI50] values over the NCI-60 lines are used to center and scale the data.

CC(=O)Oc1ccc(C(c2ccc(OC(C)=O)cc2)c2ccccn2)cc1 [Bisacodyl]
Activity compared with the oncology drugs tested (GDSC cell line panel): more active than any of the oncology drugs
Activity (Z score) against breast cancer cell lines (NCI-60 cell lines): robust activity
Anticancer activity compared with all available (~178) FDA-approved drugs (NCI-60 cell lines): superior anticancer activity
Activity (Z score) pattern against NCI-60 cell lines (NCI-60 cell lines): strong efficacy
Activity (Z score) against ovarian cancer cell lines (NCI-60 cell lines): robust activity
Effectiveness compared with 13 approved breast cancer drugs (NCI-60 cell lines): more effective
Activity (Z score) against colorectal cell lines (NCI-60 cell lines): robust activity

CC(=O)Oc1ccc(C2(c3ccc(OC(C)=O)cc3)C(=O)Nc3ccccc32)cc1 [Oxyphenisatin acetate (Acetalax), Oxyphenisatin acetate]
Activity compared with the oncology drugs tested (GDSC cell line panel): more active than any of the oncology drugs
Activity (Z score) against breast cancer cell lines (NCI-60 cell lines): robust activity
Anticancer activity compared with all available (~178) FDA-approved drugs (NCI-60 cell lines): superior anticancer activity
Activity (Z score) pattern against NCI-60 cell lines (NCI-60 cell lines): strong efficacy
Activity (Z score) against ovarian cancer cell lines (NCI-60 cell lines): robust activity
Effectiveness compared with 13 approved breast cancer drugs (NCI-60 cell lines): more effective
Activity (Z score) against colorectal cell lines (NCI-60 cell lines): robust activity
